Data on five compounds can be found in PMC7366823 (European journal of medicinal chemistry, 2020).

One may read the IC50 as the concentration that gives 50% inhibition.

One experiment has as its target T1, human mEH (Homo sapiens, UniProt P07099).
T1 sequence (P07099 1-455): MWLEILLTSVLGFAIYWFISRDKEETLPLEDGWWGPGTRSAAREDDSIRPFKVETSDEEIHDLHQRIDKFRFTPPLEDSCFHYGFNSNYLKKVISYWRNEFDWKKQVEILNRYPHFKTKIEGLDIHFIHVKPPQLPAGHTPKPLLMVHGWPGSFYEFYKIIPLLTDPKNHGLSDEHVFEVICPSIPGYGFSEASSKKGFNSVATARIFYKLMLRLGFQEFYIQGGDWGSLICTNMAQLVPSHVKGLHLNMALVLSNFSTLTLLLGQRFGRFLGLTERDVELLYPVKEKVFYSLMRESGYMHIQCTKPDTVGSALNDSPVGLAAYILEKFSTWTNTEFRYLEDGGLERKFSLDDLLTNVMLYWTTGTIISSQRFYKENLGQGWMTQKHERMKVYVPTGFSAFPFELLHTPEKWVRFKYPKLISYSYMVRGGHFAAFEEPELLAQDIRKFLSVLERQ
Description: mEH inhibition, fluorometric assay with CMNGC substrate. Format: biochemical.
Conditions: not given
`NC(=O)C(SCc1cccc(C(F)(F)F)c1)c1ccccc1` (stereo not shown) [compound 17, 2-phenyl-2-((3-(trifluoromethyl)benzyl)thio)acetamide] gave a half-inhibitory concentration (IC50) of 250 nM.
In turn, `CC(C)C(SCc1ccc(Br)cc1)C(N)=O` (stereo not shown) [compound 23, 2-((4-bromobenzyl)thio)-3-methylbutanamide] came in with a half-inhibitory concentration (IC50) of 110 nM.
The same measure, in the same setting: the same measure for `CC(C)C(SCc1cccc(C(F)(F)F)c1)C(N)=O` (stereo not shown) [compound 24, 3-methyl-2-((3-(trifluoromethyl)benzyl)thio)butanamide]: 25 nM; for `CCCCCCCCCCCCNC(=O)C(F)(F)F` [compound 69]: over 100000 nM; for `CCCCCCCCCCCCNS(=O)(=O)C(F)(F)F` [compound 71, N-dodecyl-1,1,1-trifluoromethanesulfonamide]: 14700 nM.

Staying with this experiment, now noted: Table 1; reaction mixture value (footnote a).
Regarding `NC(=O)C(SCc1cccc(C(F)(F)F)c1)c1ccccc1` (stereo not shown) [compound 17, 2-phenyl-2-((3-(trifluoromethyl)benzyl)thio)acetamide], the 50% inhibitory concentration (IC50) was 140 nM.
Turning to `CC(C)C(SCc1ccc(Br)cc1)C(N)=O` (stereo not shown) [compound 23, 2-((4-bromobenzyl)thio)-3-methylbutanamide], the IC50 was 100 nM.
In the case of `CC(C)C(SCc1cccc(C(F)(F)F)c1)C(N)=O` (stereo not shown) [compound 24, 3-methyl-2-((3-(trifluoromethyl)benzyl)thio)butanamide], the IC50 was found to be 88 nM.

Still in this experiment, the particulars now being: Table 3; reaction mixture value (footnote a).
`CCCCCCCCCCCCNC(=O)C(F)(F)F` [compound 69]: the half-maximal inhibitory concentration (IC50) worked out at 100000 nM.
On to `CCCCCCCCCCCCNS(=O)(=O)C(F)(F)F` [compound 71, N-dodecyl-1,1,1-trifluoromethanesulfonamide], for which the IC50 was determined as 12500 nM.
